In PMC9095466 (Nature, 2022):
“And” between values parts separate entries of the source, which are not always exact repeats. Identical values can stand only once. Like-named read-outs stand apart in the source and are kept apart here.

Legend:
human cathepsin L = target: T1, human cathepsin L (Homo sapiens, UniProt P07711); assay: Protease selectivity, Ki on protease; assay type: biochemical; conditions: mean ± s.d., max concentration 10 µM; read-out: Ki Cathepsin L
T1 construct: purchased Bio-Techne
T1 sequence (P07711 114-333): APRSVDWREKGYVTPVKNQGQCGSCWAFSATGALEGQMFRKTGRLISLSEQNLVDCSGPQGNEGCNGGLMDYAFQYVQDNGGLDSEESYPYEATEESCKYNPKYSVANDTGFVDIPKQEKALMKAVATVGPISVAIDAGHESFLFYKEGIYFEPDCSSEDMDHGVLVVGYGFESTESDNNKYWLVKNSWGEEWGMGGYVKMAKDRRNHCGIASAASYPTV

human thrombin = target: T2, human thrombin (Homo sapiens, UniProt P00734); assay: Protease selectivity, Ki on protease; assay type: biochemical; conditions: mean ± s.d., max concentration 10 µM; read-out: Ki Thrombin
T2 construct: purchased MilliporeSigma

human TMPRSS2 = human TMPRSS2 (Homo sapiens, UniProt O15393); assay: cell-based; conditions: for TMPRSS2 relative activity: technical duplicates; for inhibition at 0.01 µM: Vero C1008, 10 nM compound, 24 h, vs untreated/vehicle TMPRSS2-expressing Vero E6 cells, read-out: inhibition of TMPRSS2 activity (reduction of substrate proteolysis)
Chain of human TMPRSS2 (O15393 whole entry): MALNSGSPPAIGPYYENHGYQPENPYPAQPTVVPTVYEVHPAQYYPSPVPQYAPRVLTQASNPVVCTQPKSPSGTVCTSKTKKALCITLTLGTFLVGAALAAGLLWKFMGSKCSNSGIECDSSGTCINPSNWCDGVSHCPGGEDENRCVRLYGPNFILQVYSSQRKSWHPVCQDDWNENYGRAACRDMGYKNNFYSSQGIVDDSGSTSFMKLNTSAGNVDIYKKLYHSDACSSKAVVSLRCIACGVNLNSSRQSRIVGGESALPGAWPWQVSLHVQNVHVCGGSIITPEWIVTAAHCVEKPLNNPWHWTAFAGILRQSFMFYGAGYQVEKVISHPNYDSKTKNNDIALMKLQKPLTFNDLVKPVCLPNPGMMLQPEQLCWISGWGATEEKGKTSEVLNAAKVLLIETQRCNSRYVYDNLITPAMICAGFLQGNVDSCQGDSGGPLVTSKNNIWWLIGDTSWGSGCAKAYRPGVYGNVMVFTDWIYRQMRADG

Recombinant human DESC1 = target: T3, Recombinant human DESC1 (Homo sapiens, UniProt Q9UL52); assay: Protease selectivity, Ki on recombinant protease; assay type: biochemical; conditions: mean ± s.d., max concentration 10 µM; read-out: Ki DESC1
T3 construct: made in house
T3 sequence (Q9UL52 1-423): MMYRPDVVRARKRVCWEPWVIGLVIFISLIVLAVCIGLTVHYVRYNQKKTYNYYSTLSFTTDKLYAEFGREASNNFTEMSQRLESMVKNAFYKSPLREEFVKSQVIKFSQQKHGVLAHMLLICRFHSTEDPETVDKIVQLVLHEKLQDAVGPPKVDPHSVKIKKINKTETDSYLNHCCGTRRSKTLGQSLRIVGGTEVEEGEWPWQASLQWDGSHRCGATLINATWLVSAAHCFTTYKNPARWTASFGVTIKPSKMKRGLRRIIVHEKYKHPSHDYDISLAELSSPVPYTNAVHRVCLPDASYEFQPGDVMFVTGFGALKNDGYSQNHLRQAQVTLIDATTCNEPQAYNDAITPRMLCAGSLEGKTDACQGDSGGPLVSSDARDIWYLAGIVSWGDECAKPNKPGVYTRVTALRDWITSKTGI

[1] = tested on: SARS-CoV-2 lineage B strain (VIDO); assay: microbe, parasite or virus in culture; assay type: cell-based; conditions: for Nucleocapsid / dsRNA: Figure 2a, two replicates; for Nucleocapsid: DMSO control about 91-94; for dsRNA: DMSO control about 93-95; for EC50 / inhibition at 0.1 µM: Severe acute respiratory syndrome coronavirus 2, Calu-3; for EC50: read-out: SARS-CoV-2 VIDO Nucleocapsid EC50 ± SE; for inhibition at 0.1 µM: read-out: inhibition of SARS-CoV-2 infection
Recombinant human furin = target: T4, Recombinant human furin (Homo sapiens, UniProt P09958); assay: Protease selectivity, Ki on recombinant protease; assay type: biochemical; conditions: mean ± s.d., max concentration 10 µM; read-out: Ki Furin
T4 construct: purchased Bio-Techne
T4 sequence (P09958 108-794): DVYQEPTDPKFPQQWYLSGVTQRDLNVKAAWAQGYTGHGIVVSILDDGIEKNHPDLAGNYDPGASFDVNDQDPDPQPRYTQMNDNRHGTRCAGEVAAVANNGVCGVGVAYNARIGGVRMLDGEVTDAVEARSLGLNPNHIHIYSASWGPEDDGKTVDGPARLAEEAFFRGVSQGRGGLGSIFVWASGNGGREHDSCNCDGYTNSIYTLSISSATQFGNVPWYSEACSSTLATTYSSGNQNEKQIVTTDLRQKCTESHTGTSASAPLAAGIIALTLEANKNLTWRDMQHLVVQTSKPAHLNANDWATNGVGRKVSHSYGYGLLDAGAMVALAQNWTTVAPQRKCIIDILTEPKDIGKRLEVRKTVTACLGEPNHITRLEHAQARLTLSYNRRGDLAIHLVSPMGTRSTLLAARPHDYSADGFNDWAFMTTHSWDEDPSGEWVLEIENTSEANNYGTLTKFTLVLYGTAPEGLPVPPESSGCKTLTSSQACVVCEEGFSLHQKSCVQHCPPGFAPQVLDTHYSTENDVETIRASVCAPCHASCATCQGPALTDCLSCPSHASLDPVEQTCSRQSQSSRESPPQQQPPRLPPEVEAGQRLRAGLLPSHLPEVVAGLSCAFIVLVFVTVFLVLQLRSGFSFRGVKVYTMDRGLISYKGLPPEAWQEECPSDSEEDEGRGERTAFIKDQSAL

[2] = target: T5, Recombinant human matriptase (Homo sapiens, UniProt Q9Y5Y6); assay: Protease selectivity, Ki on recombinant protease; assay type: biochemical; conditions: mean ± s.d., max concentration 10 µM; read-out: Ki Matriptase
T5 construct: made in house
T5 sequence (Q9Y5Y6 1-855): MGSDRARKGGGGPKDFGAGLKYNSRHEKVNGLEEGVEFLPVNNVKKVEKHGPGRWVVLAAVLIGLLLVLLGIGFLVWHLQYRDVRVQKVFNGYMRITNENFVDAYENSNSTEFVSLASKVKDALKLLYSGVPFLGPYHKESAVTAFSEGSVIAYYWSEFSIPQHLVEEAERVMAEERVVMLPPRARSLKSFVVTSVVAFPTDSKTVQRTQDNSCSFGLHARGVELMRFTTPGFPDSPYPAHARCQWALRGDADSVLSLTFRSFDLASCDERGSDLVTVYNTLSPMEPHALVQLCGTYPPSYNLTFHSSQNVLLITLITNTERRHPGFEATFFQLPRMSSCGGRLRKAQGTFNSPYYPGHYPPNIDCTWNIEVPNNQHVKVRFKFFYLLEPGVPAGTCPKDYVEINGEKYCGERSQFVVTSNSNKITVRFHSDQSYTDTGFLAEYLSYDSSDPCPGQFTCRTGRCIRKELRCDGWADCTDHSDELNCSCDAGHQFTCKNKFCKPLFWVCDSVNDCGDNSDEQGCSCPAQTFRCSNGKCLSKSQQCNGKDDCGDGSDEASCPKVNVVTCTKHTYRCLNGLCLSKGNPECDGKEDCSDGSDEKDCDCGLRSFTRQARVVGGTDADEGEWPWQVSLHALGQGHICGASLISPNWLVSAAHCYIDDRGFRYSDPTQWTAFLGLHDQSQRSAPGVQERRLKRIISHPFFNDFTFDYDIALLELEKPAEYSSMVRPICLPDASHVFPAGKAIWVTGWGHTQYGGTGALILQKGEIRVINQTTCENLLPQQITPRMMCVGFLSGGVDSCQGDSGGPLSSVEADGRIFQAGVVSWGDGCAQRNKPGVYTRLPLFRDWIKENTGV

Recombinant human hepsin = target: T6, Recombinant human hepsin (Homo sapiens, UniProt P05981); assay: Protease selectivity, Ki on recombinant protease; assay type: biochemical; conditions: mean ± s.d., max concentration 10 µM; read-out: Ki Hepsin
T6 construct: made in house
T6 sequence (P05981 whole entry): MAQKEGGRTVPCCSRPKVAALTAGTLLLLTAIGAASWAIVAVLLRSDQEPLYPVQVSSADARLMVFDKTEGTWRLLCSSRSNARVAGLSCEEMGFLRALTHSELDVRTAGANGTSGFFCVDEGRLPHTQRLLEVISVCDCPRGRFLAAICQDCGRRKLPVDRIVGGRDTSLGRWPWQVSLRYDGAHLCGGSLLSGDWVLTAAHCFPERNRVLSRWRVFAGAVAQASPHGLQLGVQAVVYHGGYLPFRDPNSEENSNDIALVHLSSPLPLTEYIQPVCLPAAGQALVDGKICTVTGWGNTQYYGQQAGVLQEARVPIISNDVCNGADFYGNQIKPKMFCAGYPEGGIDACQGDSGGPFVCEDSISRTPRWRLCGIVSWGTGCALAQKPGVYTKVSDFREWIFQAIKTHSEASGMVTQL

[3] = Cytotoxicity CC50 in Calu-3 lung epithelial cells; assay type: cell-based, human; conditions: human, Calu-3 cells; for viability at 24 h, 3000 µM: Log [inhibitor] -2.52; for viability at 24 h, 1000 µM: Log [inhibitor] -3.00; for viability at 24 h, 300 µM: Log [inhibitor] -3.52; for viability at 24 h, 100 µM: Log [inhibitor] -4.00; for viability at 24 h, 30 µM: Log [inhibitor] -4.52; for viability at 24 h, 10 µM: Log [inhibitor] -5.00; for viability at 24 h, 3 µM: Log [inhibitor] -5.52; for viability at 24 h, 0.3 µM: Log [inhibitor] -6.52; for viability at 24 h, 0.03 µM: Log [inhibitor] -7.52; for viability at 24 h, 0.003 µM: Log [inhibitor] -8.52; for CC50 at 24 h: unit not given for CC50, read-out: CC50
Calu-3 cells = assay: Cytotoxicity CC50 in Calu-3 lung epithelial cells; assay type: cell-based, human; conditions: single replicates
[4] = TMPRSS2, mean of independent experiments, Figure 1C, read-out: IC50 Mean
[5] = Vero E6 cells expressing human TMPRSS2, 24 h with fluorogenic substrate, read-out: TMPRSS2 IC50 ± SD
[6] = read-out: % of Viability, Average (n=2)
[7] = single replicates, read-out: % of Viability

## N=C(N)NCCCCC(=O)NC(CCC(N)=O)C(=O)NC(Cc1ccccc1)C(=O)NC(CCCNC(=N)N)C(=O)c1nc2ccccc2s1 (stereo not drawn) [Compound N-0130, (H)RQFR-kbt]
Human cathepsin L
  Ki: > 10 µM
Human thrombin
  Ki: 8.23 ± 1.55 µM
Human TMPRSS2; 1.00E-06 M
  TMPRSS2 relative activity: 5.317 and 4.665
Human TMPRSS2; 1.00E-07 M
  TMPRSS2 relative activity: 0.9344 and 1.227
Human TMPRSS2; 2.00E-08 M
  TMPRSS2 relative activity: 26.2346 and 28.2385
Human TMPRSS2; 3.20E-11 M
  TMPRSS2 relative activity: 95.7258 and 93.264
Human TMPRSS2; 4.00E-09 M
  TMPRSS2 relative activity: 48.3901 and 50.7993
Human TMPRSS2; 8.00E-10 M
  TMPRSS2 relative activity: 84.4379 and 85.0608
Human TMPRSS2; Figure 1B, single experiments N1-N3
  TMPRSS2 activity (%): 32.9396% and 22.7789% and 30.45%
Human TMPRSS2; [4]
  IC50: 3.1 nM
Human TMPRSS2; TMPRSS2, single experiments, Figure 1C, read-out: IC50 determined from independant experiments
  IC50: 1.74 nM and 2.87 nM and 4.7 nM
Human TMPRSS2
  inhibition at 0.01 µM: 72%
Human TMPRSS2; [5]
  IC50: 3.1 ± 1.5 nM
Recombinant human DESC1
  Ki: 28 ± 10 nM
[1]
  Nucleocapsid: 2.419 and 11.8709
  dsRNA: 3.583 and 18.343
  EC50: 30.1 ± 30.1 nM
  inhibition at 0.1 µM: > 93%
[1]; log [C] (nM) 0.20412
  Figure 2b dose-response, Mean: 93.6494
[1]; log [C] (nM) 0.90309
  Figure 2b dose-response, Mean: 82.4234
[1]; log [C] (nM) 1.60206
  Figure 2b dose-response, Mean: 39.6362
[1]; log [C] (nM) 2.30103
  Figure 2b dose-response, Mean: 5.2153
[1]; log [C] (nM) 3
  Figure 2b dose-response, Mean: 0.8023
[1]; log [C] (nM) -0.49485
  Figure 2b dose-response, Mean: 100
[1]; log [C] (nM) -1.19382
  Figure 2b dose-response, Mean: 97.2147
Recombinant human furin
  Ki: > 10 µM
[2]
  Ki: 0.13 ± 0.03 nM
Recombinant human hepsin
  Ki: 0.38 ± 0.19 nM
[3]; [6]
  viability at 24 h, 3000 µM: 44.5%
  viability at 24 h, 1000 µM: 86.5%
  viability at 24 h, 300 µM: 90.5%
  viability at 24 h, 100 µM: 91%
  viability at 24 h, 30 µM: 96.5%
  viability at 24 h, 10 µM: 95%
  viability at 24 h, 3 µM: 100%
  viability at 24 h, 0.3 µM: 106%
  viability at 24 h, 0.03 µM: 101%
  viability at 24 h, 0.003 µM: 104%
[3]; [7]
  viability at 24 h, 3000 µM: 42%
  viability at 24 h, 1000 µM: 84%
  viability at 24 h, 300 µM: 90%
  viability at 24 h, 100 µM: 88%
  viability at 24 h, 30 µM: 98%
  viability at 24 h, 10 µM: 98%
  viability at 24 h, 3 µM: 99%
  viability at 24 h, 0.3 µM: 103%
  viability at 24 h, 0.03 µM: 99%
  viability at 24 h, 0.003 µM: 101%
[3]
  CC50 at 24 h: 2.68 mM
Calu-3 cells; Log [inhibitor] -2.52
  % of Viability: 47%
Calu-3 cells; Log [inhibitor] -3.00
  % of Viability: 89%
Calu-3 cells; Log [inhibitor] -4.00
  % of Viability: 94%
Calu-3 cells; Log [inhibitor] -5.00
  % of Viability: 92%
Calu-3 cells; Log [inhibitor] -6.52
  % of Viability: 108%
Calu-3 cells; Log [inhibitor] -8.52
  % of Viability: 107%

## N=C(N)NCCCCC(=O)N[C@@H](CCC(=O)O)C(=O)N[C@@H](Cc1ccccc1)C(=O)N[C@@H](CCCNC(=N)N)C(=O)c1nc2ccccc2s1 [Compound N-0438, (H)REFR-kbt]
Human cathepsin L
  Ki: > 10 µM
Human thrombin
  Ki: > 10 µM
Human TMPRSS2; 1.60E-10 M
  TMPRSS2 relative activity: 86.6686 and 86.7823
Human TMPRSS2; 2.00E-08 M
  TMPRSS2 relative activity: 4.266 and 6.221
Human TMPRSS2; 3.20E-11 M
  TMPRSS2 relative activity: 102.504 and 103.881
Human TMPRSS2; 4.00E-09 M
  TMPRSS2 relative activity: 35.2539 and 37.178
Human TMPRSS2; 8.00E-10 M
  TMPRSS2 relative activity: 70.1907 and 73.6892
Human TMPRSS2; [4]
  IC50: 5.17 nM
Human TMPRSS2
  inhibition at 0.01 µM: 84%
Human TMPRSS2; [5]
  IC50: 5.2 ± 5.4 nM
Recombinant human DESC1
  Ki: 31 ± 3 nM
[1]
  Nucleocapsid: 4.61 and 18.8861
  dsRNA: 14.5614 and 27.1131
  EC50: 35.7 ± 24.5 nM
  inhibition at 0.1 µM: > 88%
[1]; log [C] (nM) 0.20412
  Figure 2b dose-response, Mean: 87.8313
[1]; log [C] (nM) 0.90309
  Figure 2b dose-response, Mean: 62.8653
[1]; log [C] (nM) 1.60206
  Figure 2b dose-response, Mean: 44.3084
[1]; log [C] (nM) 2.30103
  Figure 2b dose-response, Mean: 28.0955
[1]; log [C] (nM) 3
  Figure 2b dose-response, Mean: 3.627
[1]; log [C] (nM) -0.49485
  Figure 2b dose-response, Mean: 89.252
[1]; log [C] (nM) -1.19382
  Figure 2b dose-response, Mean: 94.5427
Recombinant human furin
  Ki: > 10 µM
[2]
  Ki: 1.11 ± 0.09 nM
Recombinant human hepsin
  Ki: 0.52 ± 0.07 nM
[3]; [6]
  viability at 24 h, 3000 µM: 25.5%
  viability at 24 h, 300 µM: 87.5%
  viability at 24 h, 100 µM: 86%
  viability at 24 h, 30 µM: 89%
  viability at 24 h, 10 µM: 89%
  viability at 24 h, 3 µM: 99%
  viability at 24 h, 0.3 µM: 108%
  viability at 24 h, 0.03 µM: 103%
  viability at 24 h, 0.003 µM: 104%
[3]; [7]
  viability at 24 h, 300 µM: 86%
  viability at 24 h, 100 µM: 81%
  viability at 24 h, 30 µM: 89%
  viability at 24 h, 10 µM: 93%
  viability at 24 h, 3 µM: 101%
  viability at 24 h, 0.3 µM: 111%
  viability at 24 h, 0.03 µM: 107%
  viability at 24 h, 0.003 µM: 109%
[3]
  CC50 at 24 h: 0.98 mM
Calu-3 cells; Log [inhibitor] -2.52
  % of Viability: 12% and 39%
Calu-3 cells; Log [inhibitor] -4.00
  % of Viability: 91%
Calu-3 cells; Log [inhibitor] -5.00
  % of Viability: 85%
Calu-3 cells; Log [inhibitor] -5.52
  % of Viability: 97%
